Values quoted from earlier work, collected in patent publication US20110257262A1, “CRYSTALLINE INGENOL MEBUTATE” (LEO PHARMA A/S, priority 2010, published 2011).

Columns and labels:
skin cancer cells = details: via rapid mitochondrial disruption and cell death by primary necrosis
normal cells = details: compared with skin cancer cells

In the case of `C/C=C(/C)C(=O)O[C@H]1C(C)=C[C@]23C(=O)[C@@H](C=C(CO)[C@@H](O)[C@]12O)[C@H]1[C@@H](C[C@H]3C)C1(C)C` [Ingenol mebutate, (1aR,2S,5R,5aS,6S,8aS,9R,10aR)-5,5a-dihydroxy-4-(hydroxy-methyl)-1,1,7,9-tetramethyl-11-oxo-1a,2,5,5a,6,9,10,10a-octahydro-1H2,8a-methanocyclopenta[a]cyclopropa[e]cyclodecen-6-yl(2Z)-2-methylbut-2-enoate], the “toxicity for skin cancer cells” value (skin cancer cells) is listed as “highly toxic” and the “sensitivity of normal cells” value (normal cells) is listed as “less sensitive”.
